US4526892A, “Dimethylaminoalkyl-3-(ergoline-8'βcarbonyl)-ureas” (Farmitalia Carlo Erba, S.p.A., priority 1982, dated 1985)

How the values were obtained:
mice [1] = test: Acute toxicity: orientative toxicity in mice; assay type: in vivo, mouse; settings: per os, observed for seven days
Text: The male mice for each group were orally treated with drugs at different dose levels for the determination of orientative toxicity.

[2] = test system: spontaneously hypertensive male rats, strain SHR; test: Change in heart rate (HR) in SHR rats; assay type: in vivo, rat
Description: (§1) Four spontaneously hypertensive male rats, strain SHR, weighing 250-300 g for each group were used. The animals were treated once a day for four consecutive days. Drugs were administered by gastric gavage, suspended in 5% gum arabic (0.2 ml/100 g body weight) and blood pressure (BP) and heart rate (HR) were measured by indirected tail/cuff method (BP Recorder W+W). Blood pressure and heart rate were measured on the first and fourth days of treatment 1 hour before and 1 and 5 hours after drug administration. Hydralazine and α-methyl-Dopa were used as reference drugs.

[3] = test system: spontaneously hypertensive male rats, strain SHR; test: Anti-hypertensive activity: change in blood pressure (BP) in SHR rats; assay type: in vivo, rat; settings: for Hypotensive activity vs Hydralazine: compound 25 mg/kg vs Hydralazine 5 mg/kg; for Tolerance on the 4th day: compound 25 mg/kg, unlike Hydralazine
Description: as §1

mice [4] = settings: per os, data of LD50 from the literature; cited from earlier work
[5] = 25 mg/kg os, 1st day, 1 hour after dosing
[6] = 25 mg/kg os, 1st day, 5 hours after dosing
[7] = 25 mg/kg os, 4th day, 1 hour after dosing
[8] = 25 mg/kg os, 4th day, 5 hours after dosing
[9] = 5 mg/kg os, 1st day, 1 hour after dosing
[10] = 5 mg/kg os, 1st day, 5 hours after dosing
[11] = 5 mg/kg os, 4th day, 1 hour after dosing
[12] = 5 mg/kg os, 4th day, 5 hours after dosing
[13] = 30 mg/kg os, 1st day, 1 hour after dosing
[14] = 30 mg/kg os, 1st day, 5 hours after dosing
[15] = 30 mg/kg os, 4th day, 1 hour after dosing
[16] = 30 mg/kg os, 4th day, 5 hours after dosing
[17] = 100 mg/kg os, 1st day, 1 hour after dosing
[18] = 100 mg/kg os, 1st day, 5 hours after dosing
[19] = 100 mg/kg os, 4th day, 1 hour after dosing
[20] = 100 mg/kg os, 4th day, 5 hours after dosing

C=CCN1C[C@H](C(=O)N(C(=O)NC2CCCCC2)C2CCCCC2)C[C@@H]2c3cccc4[nH]cc(c34)C[C@H]21 [Example 15, 1,3-dicyclohexyl-3-(6'-allylergoline-8'β-carbonyl)-urea]
Orientative toxicity in mice (mice [1]): > 800 mg/kg | Change in HR [2, 5]: -20 beats/minute | Change in HR [2, 6]: -20 beats/minute | Change in HR [2, 7]: -27 beats/minute | Change in HR [2, 8]: -10 beats/minute | Change in BP [3, 5]: -35 mmHg | Change in BP [3, 6]: -27 mmHg | Change in BP [3, 7]: -47 mmHg | Change in BP [3, 8]: -38 mmHg | Effect on BP (in words) ([3]; 25 mg/kg, 1st and 4th days): decrease in BP both on the 1st and 4th days of treatment but more pronounced on the 4th day | Hypotensive activity vs Hydralazine ([3]; 4th day): much more remarkable | Hypotensive activity vs Hydralazine ([3]; first day): comparable to that of Hydralazine

CO[C@]12C[C@@H](C(=O)N(C(=O)NC3CCCCC3)C3CCCCC3)CN(C)[C@@H]1Cc1c[nH]c3cccc2c13 [Example 9, 1,3-dicyclohexyl-3-(10'α-methoxy-6'-methylergoline-8'β-carbonyl)-urea]
Orientative toxicity in mice (mice [1]): > 800 mg/kg | Change in HR [2, 5]: -20 beats/minute | Change in HR [2, 6]: -10 beats/minute | Change in HR [2, 7]: 0 beats/minute | Change in HR [2, 8]: -20 beats/minute | Change in BP [3, 5]: -30 mmHg | Change in BP [3, 6]: -37 mmHg | Change in BP [3, 7]: -5 mmHg | Change in BP [3, 8]: -23 mmHg | Effect on BP (in words) ([3]; 25 mg/kg, 1st day): marked decrease of BP | Effect on BP (in words) ([3]; 25 mg/kg, 4th day, first hour after dosing): the hypotensive effect was still observed on the fourth day even if less remarkable | Hypotensive activity vs Hydralazine [3]: comparable to that of Hydralazine | Tolerance on the 4th day [3]: no tolerance on the 4th day

CO[C@]12C[C@@H](C(=O)N(C(=O)NC3CCCCC3)C3CCCCC3)CN(C)[C@@H]1Cc1cn(C)c3cccc2c13 [Example 10, 1,3-dicyclohexyl-3-(10'α-methoxy-1',6'-dimethylergoline-8'β-carbonyl)-urea]
Orientative toxicity in mice (mice [1]): > 800 mg/kg | Change in HR [2, 9]: -5 beats/minute | Change in HR [2, 10]: -20 beats/minute | Change in HR [2, 11]: -20 beats/minute | Change in HR [2, 12]: +15 beats/minute | Change in HR [2, 5]: -2 beats/minute | Change in HR [2, 6]: -12 beats/minute | Change in HR [2, 7]: -17 beats/minute | Change in HR [2, 8]: -20 beats/minute | Change in BP [3, 9]: -11 mmHg | Change in BP [3, 10]: -22 mmHg | Change in BP [3, 11]: -15 mmHg | Change in BP [3, 12]: -16 mmHg | Change in BP [3, 5]: -26 mmHg | Change in BP [3, 6]: -41 mmHg | Change in BP [3, 7]: -51 mmHg | Change in BP [3, 8]: -40 mmHg | Hypotensive activity vs Hydralazine [3]: comparable to that of Hydralazine | Tolerance on the 4th day [3]: no tolerance on the 4th day | Effect on BP (in words) ([3]; os, all tested doses of the compound): a decrease of BP was observed; this effect was long lasting

CN1C[C@H](C(=O)N(C(=O)NC2CCCCC2)C2CCCCC2)C[C@@H]2c3cccc4[nH]cc(c34)C[C@H]21 [Example 7, 1,3-dicyclohexyl-3-(6'-methylergoline-8'β-carbonyl)urea]
Orientative toxicity in mice (mice [1]): > 800 mg/kg | Change in HR [2, 9]: 0 beats/minute | Change in HR [2, 10]: -10 beats/minute | Change in HR [2, 11]: 0 beats/minute | Change in HR [2, 12]: 0 beats/minute | Change in HR [2, 5]: +5 beats/minute | Change in HR [2, 6]: -20 beats/minute | Change in HR [2, 7]: -17 beats/minute | Change in HR [2, 8]: -2 beats/minute | Effect on BP (in words) ([3]; 5 mg/kg): the antihypertensive effect was less remarkable | Change in BP [3, 9]: -12 mmHg | Change in BP [3, 10]: -10 mmHg | Change in BP [3, 11]: -15 mmHg | Change in BP [3, 12]: -7 mmHg | Change in BP [3, 5]: -30 mmHg | Change in BP [3, 6]: -57 mmHg | Change in BP [3, 7]: -30 mmHg | Change in BP [3, 8]: -10 mmHg | Effect on BP (in words) ([3]; 25 mg/kg, 1st and 4th days): significant decrease BP | Hypotensive activity vs Hydralazine [3]: comparable to that of Hydralazine | Tolerance on the 4th day [3]: no tolerance on the 4th day

C[C@](N)(Cc1ccc(O)c(O)c1)C(=O)O [α-methyl-Dopa, reference compound]
LD50 (orientative toxicity column) (mice [4]): 5300 mg/kg | Change in HR [2, 13]: +35 beats/minute | Change in HR [2, 14]: +40 beats/minute | Change in HR [2, 15]: +45 beats/minute | Change in HR [2, 16]: +30 beats/minute | Change in HR [2, 17]: +70 beats/minute | Change in HR [2, 18]: +40 beats/minute | Change in HR [2, 19]: +50 beats/minute | Change in HR [2, 20]: +10 beats/minute | Effect on HR (in words) ([2]; SHR rats, os): increase of HR | Change in BP [3, 13]: -10 mmHg | Change in BP [3, 14]: -20 mmHg | Change in BP [3, 15]: -10 mmHg | Change in BP [3, 16]: 0 mmHg | Change in BP [3, 17]: -10 mmHg | Change in BP [3, 18]: -25 mmHg | Change in BP [3, 19]: -20 mmHg | Change in BP [3, 20]: -25 mmHg
